Source: patent US20100311714A1, “1H-IMIDAZO[4,5-c]QUINOLINONE COMPOUNDS” (priority 2009, published 2010)
Like-named read-outs stand apart in the source and are kept apart here.

How the values were obtained:
[1] = target: T1, mTOR (Homo sapiens, UniProt P42345); assay: Biochemical assay for m-TOR by TR-FRET
T1 construct: purchased Invitrogen Corporation (Carlsbad/Calif., USA) PV4753
Outline: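 mTOR (0.5 nM) phosphorylates GFP-4EBP1 (400 nM) with 8 μM ATP at rt in 50 mM HEPES pH 7.5, 10 mM MnCl2, 50 mM NaCl, 1 mM EGTA, 1 mM DTT; compounds 0.003–10 μM final. EDTA stop with Tb-anti-p4EBP1[pT46] antibody (0.5 nM); TR-FRET read after 15 min against no-enzyme and vehicle controls.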

[2] = test system: PKB Ser473 phosphorylation in Rat1-myr-HA-p110 alpha cells; assay: Reverse protein array, PKB Ser473 phosphorylation in Rat1-myr-HA-p110 alpha cells; type: cell-based; details: Rattus norvegicus, 0.5 h, 30 minutes compound incubation, read-out: p-PKB/IC50_alpha
[3] = Parallel Artificial Membrane Permeability Assay (PAMPA) at pH 6.8; type: physicochemical
Outline: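 PAMPA permeability measured at pH 6.8 following the Wohnsland and Faller method; value reported as log Pe.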

T1 sequence (P42345 1360-2549 limits assumed): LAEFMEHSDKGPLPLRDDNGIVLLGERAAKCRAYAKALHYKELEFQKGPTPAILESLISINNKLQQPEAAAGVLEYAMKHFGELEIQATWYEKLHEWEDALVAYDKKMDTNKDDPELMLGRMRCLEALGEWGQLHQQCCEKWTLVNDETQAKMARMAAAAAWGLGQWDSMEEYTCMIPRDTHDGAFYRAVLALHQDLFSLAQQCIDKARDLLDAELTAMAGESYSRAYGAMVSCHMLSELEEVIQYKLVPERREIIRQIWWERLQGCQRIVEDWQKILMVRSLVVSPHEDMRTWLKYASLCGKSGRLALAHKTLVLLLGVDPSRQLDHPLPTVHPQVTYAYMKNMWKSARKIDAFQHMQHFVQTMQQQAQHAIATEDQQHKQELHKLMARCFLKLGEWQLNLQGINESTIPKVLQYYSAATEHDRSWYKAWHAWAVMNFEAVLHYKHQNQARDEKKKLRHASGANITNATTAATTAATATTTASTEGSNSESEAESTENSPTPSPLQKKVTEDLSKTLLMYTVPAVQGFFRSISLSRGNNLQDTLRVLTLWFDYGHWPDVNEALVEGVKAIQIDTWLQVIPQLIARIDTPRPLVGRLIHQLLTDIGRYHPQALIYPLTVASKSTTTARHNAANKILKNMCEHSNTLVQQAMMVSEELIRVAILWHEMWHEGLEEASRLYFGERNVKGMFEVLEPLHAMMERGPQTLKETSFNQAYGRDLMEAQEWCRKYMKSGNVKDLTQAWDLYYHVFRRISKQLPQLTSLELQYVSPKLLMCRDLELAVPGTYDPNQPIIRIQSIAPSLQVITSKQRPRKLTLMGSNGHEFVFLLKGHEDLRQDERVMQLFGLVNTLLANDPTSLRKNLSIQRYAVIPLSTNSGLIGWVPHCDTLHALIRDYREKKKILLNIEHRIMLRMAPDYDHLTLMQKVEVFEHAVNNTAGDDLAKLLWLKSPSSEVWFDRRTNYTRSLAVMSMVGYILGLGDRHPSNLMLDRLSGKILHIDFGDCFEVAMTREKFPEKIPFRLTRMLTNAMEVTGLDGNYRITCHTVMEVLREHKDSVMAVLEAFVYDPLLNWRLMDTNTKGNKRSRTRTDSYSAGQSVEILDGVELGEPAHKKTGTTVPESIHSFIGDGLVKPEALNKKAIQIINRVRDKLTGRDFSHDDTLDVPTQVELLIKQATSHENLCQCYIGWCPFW

Structure (SMILES)	IC50 ([1]; read-out: EPK_mTOR/IC50)	IC50 [2]	HT-Perm logPe pH6.8 [3]	IC50 ([1]; read-out: mTOR/IC50)	HT-perm/logPe pH6.8 [3]
CCNc1cc(-c2ccc3ncc4c(c3c2)n(-c2ccc(OC)nc2C)c(=O)n4C)cnc1C [Example 11.7, 8-(5-Ethylamino-6-methyl-pyridin-3-yl)-1-(6-methoxy-2-methyl-pyridin-3-yl)-3-methyl-1,3-dihydro-imidazo[4,5-c]quinolin-2-one]	3 nM	4.9 nM	−3.7		
CNc1cc(-c2ccc3ncc4c(c3c2)n(-c2ccc(N(C)C)nc2C)c(=O)n4C)cnc1C [Example 19.2, 1-(6-Dimethylamino-2-methyl-pyridin-3-yl)-3-methyl-8-(6-methyl-5-methylamino-pyridin-3-yl)-1,3-dihydro-imidazo[4,5-c]quinolin-2-one]	9 nM	< 4.57 nM	−4.1		
COc1ncccc1-n1c(=O)n(C)c2cnc3ccc(-c4cnc(N)c(C(F)(F)F)c4)cc3c21 [Example 1.3, 8-(6-Amino-5-trifluoromethyl-pyridin-3-yl)-1-(2-methoxy-pyridin-3-yl)-3-methyl-1,3-dihydro-imidazo[4,5-c]quinolin-2-one]		6.94 nM		9 nM	−3.8
CCNc1cc(-c2ccc3ncc4c(c3c2)n(-c2ccc(N3CC(F)(F)C3)nc2C)c(=O)n4C)cnc1CO [Example 24.3, 1-[6-(3,3-Difluoro-azetidin-1-yl)-2-methyl-pyridin-3-yl]-8-(5-ethylamino-6-hydroxymethyl-pyridin-3-yl)-3-methyl-1,3-dihydro-imidazo[4,5-c]quinolin-2-one]	< 3 nM	5.9 nM			
CNc1ccc(-c2ccc3ncc4c(c3c2)n(-c2ccc(NC(=O)COC)nc2C)c(=O)n4C)cn1 [Example 20.4, 2-Methoxy-N-{6-methyl-5-[3-methyl-8-(6-methylamino-pyridin-3-yl)-2-oxo-2,3-dihydro-imidazo[4,5-c]quinolin-1-yl]-pyridin-2-yl}-acetamide]	11 nM	5.6 nM			
COCCOc1ccc(-n2c(=O)n(C)c3cnc4ccc(-c5cncc(N6CCC6)c5)cc4c32)c(C)n1 [Example 22.2, 8-(5-Azetidin-1-yl-pyridin-3-yl)-1-[6-(2-methoxy-ethoxy)-2-methyl-pyridin-3-yl]-3-methyl-1,3-dihydro-imidazo[4,5-c]quinolin-2-one]	21 nM	6.4 nM			
CCOc1ccc(-c2ccc3ncc4c(c3c2)n(-c2ccc(N(C)C)nc2C)c(=O)n4C)cn1 [Example 19.3, 1-(6-Dimethylamino-2-methyl-pyridin-3-yl)-8-(6-ethoxy-pyridin-3-yl)-3-methyl-1,3-dihydro-imidazo[4,5-c]quinolin-2-one]		6.8 nM	−4.4		
COCC(=O)Nc1ccc(-n2c(=O)n(C)c3cnc4ccc(-c5cncc(OC(C)C)c5)cc4c32)c(C)n1 [Example 20.5, N-{5-[8-(5-Isopropoxy-pyridin-3-yl)-3-methyl-2-oxo-2,3-dihydro-imidazo[4,5-c]quinolin-1-yl]-6-methyl-pyridin-2-yl}-2-methoxy-acetamide]	900 nM	90.2 nM			
CNc1ncc(-c2ccc3ncc4c(c3c2)n(-c2ccc(NC(=O)COC)nc2C)c(=O)n4C)cn1 [Example 20.3, 2-Methoxy-N-{6-methyl-5-[3-methyl-8-(2-methylamino-pyrimidin-5-yl)-2-oxo-2,3-dihydro-imidazo[4,5-c]quinolin-1-yl]-pyridin-2-yl}-acetamide]	59 nM	6.6 nM			
CNc1ncc(-c2ccc3ncc4c(c3c2)n(-c2ccc(N(C)C)nc2C)c(=O)n4C)cn1 [Example 19.1, 1-(6-Dimethylamino-2-methyl-pyridin-3-yl)-3-methyl-8-(2-methylamino-pyrimidin-5-yl)-1,3-dihydro-imidazo[4,5-c]quinolin-2-one]	3 nM		−3.9		
CCOc1ccc(-c2ccc3ncc4c(c3c2)n(-c2ccc(NC(=O)COC)nc2C)c(=O)n4C)cn1 [Example 20.2, N-{5-[8-(6-Ethoxy-pyridin-3-yl)-3-methyl-2-oxo-2,3-dihydro-imidazo[4,5-c]quinolin-1-yl]-6-methyl-pyridin-2-yl}-2-methoxy-acetamide]	154 nM	50 nM			

Results, then the molecule that gave them:

IC50 ([1]; read-out: EPK_mTOR/IC50)	IC50 [2]	HT-Perm logPe pH6.8 [3]	IC50 ([1]; read-out: mTOR/IC50)	HT-perm/logPe pH6.8 [3]	Structure (SMILES)
470 nM	20.5 nM	−3.9			COc1ccc(-n2c(=O)n(C)c3cnc4ccc(-c5ccc6nccn6c5)cc4c32)c(OC)n1 [Example 8.10, 1-(2,6-Dimethoxy-pyridin-3-yl)-8-imidazo[1,2-a]pyridin-6-yl-3-methyl-1,3-dihydro-imidazo[4,5-c]quinolin-2-one]
49 nM	17 nM	−4			CCOc1ccc(-c2ccc3ncc4c(c3c2)n(-c2ccc(OCCOC)nc2C)c(=O)n4C)cn1 [Example 13.1, 8-(6-Ethoxy-pyridin-3-yl)-1-[6-(2-methoxy-ethoxy)-2-methyl-pyridin-3-yl]-3-methyl-1,3-dihydro-imidazo[4,5-c]quinolin-2-one]
140 nM	24.2 nM				COCCOc1ccc(-n2c(=O)n(C)c3cnc4ccc(-c5cnc(COC)c(OC)c5)cc4c32)c(C)n1 [Example 22.3, 1-[6-(2-Methoxy-ethoxy)-2-methyl-pyridin-3-yl]-8-(5-methoxy-6-methoxymethyl-pyridin-3-yl)-3-methyl-1,3-dihydro-imidazo[4,5-c]quinolin-2-one]
119 nM	10.8 nM				COCCN(C)c1ccc(-n2c(=O)n(C)c3cnc4ccc(-c5cnc(CO)c(OC)c5)cc4c32)c(C)n1 [Example 15.9, 8-(6-Hydroxymethyl-5-methoxy-pyridin-3-yl)-1-{6-[(2-methoxy-ethyl)-methyl-amino]-2-methyl-pyridin-3-yl}-3-methyl-1,3-dihydro-imidazo[4,5-c]quinolin-2-one]
	7.27 nM			−4.1	COc1ccc(-n2c(=O)n(C)c3cnc4ccc(-c5cnc(N)c(C(F)(F)F)c5)cc4c32)c(OC)n1 [Example 8.1, 8-(6-Amino-5-trifluoromethyl-pyridin-3-yl)-1-(2,6-dimethoxy-pyridin-3-yl)-3-methyl-1,3-dihydro-imidazo[4,5-c]quinolin-2-one]
	308 nM			−3.7	COc1ccc(-c2ccc3ncc4c(c3c2)n(-c2ncccc2C)c(=O)n4C)cn1 [Example 3.13, 8-(6-Methoxy-pyridin-3-yl)-3-methyl-1-(3-methyl-pyridin-2-yl)-1,3-dihydro-imidazo[4,5-c]quinolin-2-one]
80 nM	31.1 nM				Cc1nc(F)ccc1-n1c(=O)n(C)c2cnc3ccc(-c4cnc(N)c(CO)c4)cc3c21 [Example 7.17, 8-(6-Amino-5-hydroxymethyl-pyridin-3-yl)-1-(6-fluoro-2-methyl-pyridin-3-yl)-3-methyl-1,3-dihydro-imidazo[4,5-c]quinolin-2-one]
139 nM		−3.8			Cc1nc(C(C)(C)O)ccc1-n1c(=O)n(C)c2cnc3ccc(-c4cncc(OC(C)C)c4)cc3c21 [Example 31.9, 1-[6-(1-Hydroxy-1-methyl-ethyl)-2-methyl-pyridin-3-yl]-8-(5-isopropoxy-pyridin-3-yl)-3-methyl-1,3-dihydro-imidazo[4,5-c]quinolin-2-one]
